Test results taken from US9028856B2, “Synergistic pesticide compositions” (priority 2008, dated 2015).

Tests used:
[1] = type: physicochemical; settings: classified from Log P
Description: As used herein, a “partition coefficient” is defined as the ratio of concentrations of an un-ionized compound between solutions of water and octanol. To measure the partition coefficient of ionizable solutes, the pH of the aqueous phase is adjusted such that the predominant form of the compound is un-ionized. The logarithm of the ratio of the concentrations of the un-ionized solute in the solvents is referred to herein as log P or log K ow.
As noted herein, the octanol-water partition coefficient may be used to identify the cuticular penetration of a particular active ingredient. One factor in the relative speed through which any insecticide acts is the insecticide's ability to cross the insect cuticle. A determining factor for cuticle penetration is Log K ow, also known as Log P. Log K ow (Log P) is the octanol-water partition coefficient for a neutral molecule. Log P is used hereinfurther, but, as noted above, the term is synonymous with Log K ow. As previously noted, the cuticular penetration of any particular active ingredient as against a plant cuticle is not indicative of that same active ingredient's ability to penetrate an insect cuticle.
The cuticular penetration of a compound is classified as “INTERMEDIATE” when the Log P value is between about 2.0 and about 4.0.

[2] = octanol-water partition coefficient (Log K ow), Table 1; cited from earlier work
[3] = system: tropical house mosquito Culex quinquefasciatus (adults, 3 days old); experiment: Efficacy of formulations on surfaces (glazed/unglazed tiles, plywood), ten 3 day old mosquitoes, 3 min exposure; type: in vivo; settings: 0.002% = 1 mg DTM/m^2 on glazed tiles; EC formulation; 3 minutes exposure
Procedure: The ingredients were diluted in acetone to give a concentration which corresponds to the desired quantity of a.i./m^2. A 1 ml quantity of the solution was applied by pipette onto the 15 cm×15 cm surfaces without treating the outer edge of 1 cm.
(§1) Ten 3 day old Culex quinquefasciatus mosquitoes were exposed to each treatment for 3 minutes under a perforated petri dish, and then a clean untreated white paper index card was moved between treated surface and petri dish. A water-soaked cotton pad was applied immediately after.
Each test consisted of three replicates (three batches of ten mosquitoes were exposed for three minutes to the same surface, each one hour later), of which the mean values are calculated.
The test insects were Culex quinquefasciatus (adults, 3 days old). The compositions were evaluated for their ability to provide effective knock down after 3, 9, 15, and 30 minutes, 1, 2, 3, 4 and 24 hours (mortality). The experiments were performed in triplicate on glazed tile, but not repeated on wood.
Test Insects are Culex quinquefasciatus (adults, 3 days old). The Application provides the technical compounds were dissolved in acetone and applied as 1 ml solutions onto glazed tiles (15 cm×15 cm). An evaluation is provided at knock down after 3, 9, 15, and 30 minutes, 1, 2, 3, 4 and 24 hours (mortality). There are 3 replicates.
Test Insects: Culex quinquefasciatus (adults, 3 days old)
Application: The technical compounds were dissolved in acetone and applied as 1 ml solutions onto glazed tiles (15 cm×15 cm).
Evaluation: Knock down after 3, 9, 15, and 30 minutes, 1, 2, 3, 4 and 24 hours (mortality) […]
Application: The active ingredients were applied as 1 ml acetone solutions onto glazed tiles (15 cm×15 cm) […]
as §1, with “For the mosquitoes, the USDA Petri Dish Method is used. Ten” for “Ten”, “are” for “were”, “dish” for “dish,”, “is” for “was”, “after. […]” for “after.”

[4] = system: Musca domestica, resistant strain Reichswald; experiment: Efficacy of formulations on surfaces (glazed/unglazed tiles), house flies, continuous exposure; type: in vivo; settings: Table 115; 0.002% = 1 mg DTM/m^2 on glazed tiles; EC formulation; continuous exposure
Procedure: (§2) All surfaces were provided with talcum-coated glass rings (diameter 9.5 cm, height 5.5 cm) one day later.
(§3) The test insects were anesthetized with CO2, 20 individuals were placed onto the treated surfaces and the glass ring was covered with wire gauze ring. […]
(§4) Each test consisted of at least one replicate and any additional replicates are noted.
(§5) Test Insects: House flies (Musca domestica) of both sexes, susceptible strain WHO(N) and resistant strain Reichswald
(§6) Evaluation: Mortality was evaluated cumulatively at different times. […]
(§7) Test Insects: Culex quinquefasciatus (adults) (3 minutes exposure time according to USDA Petri Dish Method), Musca domestica (adults), susceptible and resistant strain, Blattella germanica (males), Cimex lectularius (adults) (all: continuous exposure time)
(§8) Application: The EC formulation (diluted with water 1:9) were applied as 0.85 ml solutions onto glazed tiles (15 cm×15 cm)

[5] = system: Cimex lectularius (adults); experiment: Efficacy on glazed tiles (acetone solutions or EC formulations), continuous exposure; type: in vivo; settings: on tiles, insecticide alone (imidacloprid 50 mg/m^2, Bendiocarb 50 mg/m^2, Ethiprole 10 mg/m^2, DTM 1 mg/m^2), no Compound A
Procedure: as §7, §8
(§9) Evaluation: Knock down after 15, and 30 minutes, 1, 2, 3, 4, 6 and 24 hours (mortality)
Test Insects: Culex quinquefasciatus (adults) (3 minutes exposure time according to USDA Petri Dish Method), Cimex lectularius (adults), Acheta domesticus (middle nymphs) (both: continuous exposure time)
Application: The active ingredients were applied as 1 ml acetone solutions onto glazed tiles (15 cm×15 cm)
(§10) Evaluation: Knock down after 3, 9 (mosquitoes only), 15, and 30 minutes, 1, 2, 3, 4 and 24 hours (mortality)
Test Insects: Culex quinquefasciatus (adults) (3 minutes exposure time according to USDA Petri Dish Method), Cimex lectularius (adults), (continuous exposure time)
Test Insects: Cimex lectularius, Culex quinquefasciatus, Musca domestica (all adults, susceptible strains)
Application: The active ingredients were applied as 1 ml acetone solutions onto glazed tiles (15 cm×15 cm), continuous exposure time

[6] = system: Blattella germanica (males, susceptible); experiment: Efficacy of EC formulations on glazed/unglazed tiles, continuous exposure; type: in vivo; settings: 0.002% = 1 mg DTM/m^2 on glazed tiles, EC formulation
Procedure: as §2, §3
Each test consisted of at least one replicate and any additional replicates are noted. […]
(§11) Test Insects: Culex quinquefasciatus (adults, susceptible) (3 minutes exposure time according to USDA Petri Dish Method), Musca domestica (adults, susceptible and resistant), Blattella germanica (males, susceptible) (both: continuous exposure time)
(§12) Formulations: Insecticide with or without 10% Compound A (as EC), to be diluted with water (1 part formulation+9 parts water)
Application: 1 ml of the diluted formulations was applied by pipette onto glazed tiles (15×15 cm)
as §10

[7] = system: Musca domestica, susceptible strain WHO(N); experiment: Efficacy of formulations on surfaces (glazed/unglazed tiles), house flies, continuous exposure; type: in vivo; settings: Table 114; 0.002% = 1 mg DTM/m^2 on glazed tiles; EC formulation; continuous exposure
Procedure: A flat fan nozzle (type SS 8003-E) in a spray cabin was moved automatically over a defined area where the solutions were sprayed very evenly onto the surfaces. The formulation was mixed with water to give a concentration which corresponded to the desired quantity of a.i./m^2. A defined quantity of this solution was sprayed onto the area (nominal 350 liter/ha=0.77 ml per surface).
as §2
The test insects were anesthetized with CO2, 20 individuals were placed onto the treated surfaces and the glass ring was covered with wire gauze ring.
Knock down was determined after 15 and 30′, 1, 2, 4 and 6 hours, mortality after 1 day exposure.
as §4, §5, §6, §7, §8, §9, §11, §12
Evaluation: Knock down after 3, 9 (mosquitoes only), 15, and 30 minutes, 1, 2, 3, 4 and 24 hours (mortality) […]

## O=C(NC(=O)c1c(F)cccc1F)Nc1cc(Cl)c(OC(F)(F)C(F)F)c(Cl)c1 [hexaflumuron]
[1]
  Likelihood of Direct Insect Cuticular Penetration: Fast (classified as “FAST” when it has a Log P value of about >4.0)
[2]
  Log P: 5.6

## CNC(=O)Oc1cccc2ccccc12 [carbaryl]
[1]
  Likelihood of Direct Insect Cuticular Penetration: Intermediate (classified as “INTERMEDIATE” when the Log P value is between about 2.0 and about 4.0)
[2]
  Log P: 2.8

## CCOC(=O)CC(SP(=S)(OC)OC)C(=O)OCC (centres unmarked) [malathion]
[1]
  Likelihood of Direct Insect Cuticular Penetration: Intermediate (classified as “INTERMEDIATE” when the Log P value is between about 2.0 and about 4.0)
[2]
  Log P: 2.7

## COC(=O)N(C(=O)N1CO[C@@]2(C(=O)OC)Cc3cc(Cl)ccc3C2=N1)c1ccc(OC(F)(F)F)cc1 [indoxacarb]
[1]
  Likelihood of Direct Insect Cuticular Penetration: Fast (classified as “FAST” when it has a Log P value of about >4.0)
[2]
  Log P: 4.6

## CC1(C)CNC(=NN=C(/C=C/c2ccc(C(F)(F)F)cc2)/C=C/c2ccc(C(F)(F)F)cc2)NC1 [hydramethylnon]
[1]
  Likelihood of Direct Insect Cuticular Penetration: Intermediate (classified as “INTERMEDIATE” when the Log P value is between about 2.0 and about 4.0)
[2]
  Log P: 2.3

## pyrethrin
[1]
  Likelihood of Direct Insect Cuticular Penetration: Fast (classified as “FAST” when it has a Log P value of about >4.0)
[2]
  Log P: 4.3

## CC1(C)[C@H](C(=O)O[C@H](C#N)c2cccc(Oc3ccccc3)c2)[C@@H]1C=C(Br)Br [DTM]
[3]
  % KD and Mortality 15′: 0%
  % KD and Mortality 30′: 0%
  % KD and Mortality 1 h: 10%
  % KD and Mortality 2 h: 10%
  % KD and Mortality 3 h: 10%
  % KD and Mortality 4 h: 10%
  % KD and Mortality 6 h: 20%
  % KD and Mortality 24 h: 80%
[4]
  % KD and Mortality 15′: 0%
  % KD and Mortality 30′: 0%
  % KD and Mortality 1 h: 0%
  % KD and Mortality 2 h: 0%
  % KD and Mortality 3 h: 0%
  % KD and Mortality 4 h: 0%
  % KD and Mortality 6 h: 0%
  % KD and Mortality 24 h: 5%
[5]; 15′
  % KD and Mortality: 0%
[5]; 30′
  % KD and Mortality: 0%
[5]; 1 h
  % KD and Mortality: 0%
[5]; 2 h
  % KD and Mortality: 10%
[5]; 3 h
  % KD and Mortality: 80%
[5]; 4 h
  % KD and Mortality: 100%
[5]; 6 h
  % KD and Mortality: 100%
[5]; 24 h
  % KD and Mortality: 100%
[6]
  % KD and Mortality 15′: 0%
  % KD and Mortality 30′: 40%
  % KD and Mortality 1 h: 100%
  % KD and Mortality 2 h: 100%
  % KD and Mortality 3 h: 100%
  % KD and Mortality 4 h: 100%
  % KD and Mortality 6 h: 100%
  % KD and Mortality 24 h: 100%
[7]
  % KD and Mortality 15′: 10%
  % KD and Mortality 30′: 85%
  % KD and Mortality 1 h: 95%
  % KD and Mortality 2 h: 100%
  % KD and Mortality 3 h: 100%
  % KD and Mortality 4 h: 100%
  % KD and Mortality 6 h: 100%
  % KD and Mortality 24 h: 100%

## N#Cc1ccc(CC(=NNC(=O)Nc2ccc(OC(F)(F)F)cc2)c2cccc(C(F)(F)F)c2)cc1 (mixture of isomers) [metaflumizone]
[1]
  Likelihood of Direct Insect Cuticular Penetration: Fast (classified as “FAST” when it has a Log P value of about >4.0)
[2]
  Log P: 5.1

## Cc1c(COC(=O)[C@@H]2[C@H](/C=C(\Cl)C(F)(F)F)C2(C)C)cccc1-c1ccccc1 (racemic) [bifenthrin]
[1]
  Likelihood of Direct Insect Cuticular Penetration: Fast (classified as “FAST” when it has a Log P value of about >4.0)
[2]
  Log P: 6.0

## C/C(=N\C#N)N(C)Cc1ccc(Cl)nc1 [acetamiprid]
[1]
  Likelihood of Direct Insect Cuticular Penetration: Slow (classified as “SLOW” when the compound has a Log P value of about <2.0)
[2]
  Log P: 0.8

## CS/C(C)=N\OC(=O)N(C)SN(C)C(=O)O/N=C(\C)SC [thiodicarb]
[1]
  Likelihood of Direct Insect Cuticular Penetration: Slow (classified as “SLOW” when the compound has a Log P value of about <2.0)
[2]
  Log P: 1.6

## CCc1nn(C)c(C(=O)NCc2ccc(C(C)(C)C)cc2)c1Cl [tebufenpyrad]
[1]
  Likelihood of Direct Insect Cuticular Penetration: Fast (classified as “FAST” when it has a Log P value of about >4.0)
[2]
  Log P: 4.9

## CN1COCN(Cc2cnc(Cl)s2)/C1=N\[N+](=O)[O-] [thiamethoxam]
[1]
  Likelihood of Direct Insect Cuticular Penetration: Slow (classified as “SLOW” when the compound has a Log P value of about <2.0)
[2]
  Log P: 0.1

## O=C(NC(=O)c1ccccc1Cl)Nc1ccc(OC(F)(F)F)cc1 [triflumuron]
[1]
  Likelihood of Direct Insect Cuticular Penetration: Fast (classified as “FAST” when it has a Log P value of about >4.0)
[2]
  Log P: 4.9

## CCNS(=O)(=O)C(F)(F)C(F)(F)C(F)(F)C(F)(F)C(F)(F)C(F)(F)C(F)(F)C(F)(F)F [sulfluramid]
[1]
  Likelihood of Direct Insect Cuticular Penetration: Fast (classified as “FAST” when it has a Log P value of about >4.0)
[2]
  Log P: >6.8
